Test system: Wistar rats
Assay: Tolerability study of calcium zoledronate microparticles in rats after s.c. administration (skin fold thickness)
Format: in vivo, rat
Settings: s.c. injection of suspension, 60 microgram, female Wistar rats
Description: The microparticles of Examples 2 and 3 are suspended in a vehicle containing sodium carboxy methylcellulose, D-mannitol, Pluronics F68 and water for injection. 200 microliters of these suspensions were injected subcutaneously to the shaved skin at the left dorsal side of 8 weeks old female virgin Wistar rats (body weight approximately 220 g). In this way 1 mg dose (per animal) of zoledronic acid of the 15% calcium zoledronate microparticles (Example 3) and 2 mg dose (per animal) of zoledronic acid of the 10% calcium zoledronate microparticles (Example 2) were applied to a group of 6 animals per formulation. The thickness of the skin will be measured by a micro-caliper at the side of injection and the contra-lateral non-injected side. As reference a suspension of non-encapsulated drug substance is injected in a dose of 60 microgram. In addition, placebo microparticles made out of PLGA 75:25 (IV 0.68 dL/g) are also injected as control.

`O=P([O-])(O)C(O)(Cn1ccnc1)P(=O)([O-])O.[Ca+2]` [non-encapsulated drug substance, calcium zoledronate] was tested, and the “swelling of the skin / local skin irritation” value was “strong swelling of the skin”.
